In patent publication US4110368A, “Hydro substituted prostanoic acids and esters” (American Cyanamid Company, priority 1977, dated 1978):

How the values were obtained:
[1] = test system: ulcerogenic properties of indomethacin; assay: protection against indomethacin-induced ulcers (ulcer score); format: in vivo, rat; conditions: two half doses by gavage, indomethacin 20 mg./kg. s.c., ulcer scale 0-4, score 2.5 or lower = active
Experimental: The compounds of this invention provide protection against the ulcerogenic properties of indomethacin. This assay was carried out in the following manner.
Rats were starved for 48 hours (water was given ad libitum). Indomethacin (20 mg./kg. of body weight) was administered by the subutaneous route and one-half the dose of the test compound was administered by gavage at the same time. After 3 hours, the second half of the test compound was administered also by Gavage. Five hours after the administration of indomethacin the animals were decapitated and the stomachs removed. The stomachs were washed with distilled water, blotted on gauze, cut along the larger curvature, and the contents rinsed with distilled water. The stomachs were spread out, pinned on a cork and visualized under magnifying glass for ulcers. The criteria for scoring of ulcers was as previously reported. [Abdel-Galil et al. Brit. J. Pharmac. Chemotherapy 33:1-14 (1968)].
1 -- Petechial hemorrhage or pin point ulcer
3 -- Many ulcers, a few large
4 -- Many ulcers, mainly large
Control animals treated with indomethacin but not test compound consistently give scores of about 3.0-3.5. Control animals treated with neither indomethacin nor test compound give scores of about 0.5-0.8. Compounds producing a score of 2.5 or lower are considered to be active.

gastric acid secretion = gastric acid secretion inhibition, modified Shay rat procedure; format: in vivo, rat (male, CFE strain); conditions: intraduodenal dose 100 mg./kg. of body weight; 3 hours; 20% or more = active
Experimental: The novel compounds of the present invention are also effective inhibitors of gastric acid secretion and of ulcer development in experimental animals, and thus are potentially valuable as agents for the control of gastric acid secretion and of gastric erosion and as anti-ulcer agents. Gastric acid secretion inhibitory action is usually measured by the "Shay rat" procedure ^(1,2) with some modifications as follows.
The rats (male, CFE strain) were starved for 48 hours (water was given ad libitum) to permit evacuation of stomach contents. On the morning of the experiment, under ether anesthesia, the abdominal region was shaved and a midline incision (1-1 1/2 inch) was made with a scapel. […]
The abdominal cavity was exposed by cutting with scissors and the esophagus close to the stomach was clamped off with a hemostat, the stomach was removed by cutting above the hemostat (the esophagus was cut) and between the two sutures. […] The supernatant was collected, volume measured and recorded, 2 drops of a phenolphthalein indicator (1% in 95% ethanol) were added and the solution was titrated with 0.02N NaOH (or with 0.04N NaOH when large volumes of stomach contents were encountered) to pH 8.4 (because of usual coloring of the stomach contents, phenolphthalein was only used to permit visual indication that the end point was near) and the amount of acid present was calculated. […]

[2] = total oral dose 25 mg./kg. of body weight, control 3.2

## CCCCCC(O)/C=C/[C@H]1CCC(=O)[C@@H]1CCCCCC(CC)C(=O)O (relative stereo)
[1]; total oral dose 50 mg./kg. of body weight, control 3.0
  Score, Treated: 2.2

## CCCCC[C@@H](O)/C=C/[C@H]1CCC(=O)[C@@H]1CCCCSCC(=O)O (relative stereo) [9-oxo-3-thia-15-epi-hydroxy-13-trans-prostenoic acid]
[1]; [2]
  Score, Treated: 2.3

## CCCCCC(O)/C=C/[C@H]1CCC(=O)[C@@H]1CCCCC(C)(C)CC(=O)O (relative stereo) [9-oxo-15-hydroxy-3,3-dimethyl-13-trans-prostenoic acid]
Gastric acid secretion
  Percent Inhibition (gastric acid secretion): 51%

## CCCCCC(O)/C=C\[C@H]1CCC(=O)[C@@H]1CCCCCCC(=O)O (relative stereo) [9-oxo-15-hydroxy-13-cis-prostenoic acid, 15-hydroxy-9-oxo-13-cis-prostenoic acid]
[1]; total oral dose 100 mg./kg. of body weight, control 3.0
  Score, Treated: 1.3

## CCCCC(CC)C(O)/C=C/[C@H]1CCC(=O)[C@@H]1CCCCCCC(=O)O (relative stereo) [9-oxo-15-hydroxy-16-ethyl-13-trans-prostenoic acid]
[1]; [2]
  Score, Treated: 1.7

## CCCCCC(O)/C=C/C1CCC(=O)C1CCCCSCC(=O)O (stereo not drawn) [9-oxo-3-thia-15-hydroxy-13-trans-prostenoic acid]
[1]; [2]
  Score, Treated: 1.8

## CCCCCC(O)/C=C/C1CCC(=O)C1(C)CCCCCCC(=O)O (stereo not drawn) [9-oxo-8β-methyl-15-hydroxy-13-trans-prostenoic acid]
[1]; total oral dose 12.5 mg./kg. of body weight, control 3.0
  Score, Treated: 2.0
